Experimental data as given in patent publication US11565231B2, “Substrates, peptide arrays, and methods” (Vibrant Holdings, LLC, priority 2012, dated 2023).

Tests used:
[1] = test system: antibodies of clinically proven celiac positive samples; assay: Immunological binding assay on Periphilin-1 overlapping peptide array; settings: Periphilin-1 spanned as overlapping 12 amino acid peptides, signals significant when exceeding background (400) by a factor of 50
Protocol: Immunological binding assays were performed on an array produced using the materials and methods described in the Examples above. The samples that were used to run the assays included clinically proven celiac positive samples.
The immunoactive regions of Periphilin-1 were determined. With reference to FIG. 17, the microarray substrate including the Periphilin-1 sequence split into 12 amino acid length peptide sequences is shown. […] Determination of background noise, background subtraction, and identification of signals that exceed background noise routine and well within the level of ordinary skill in the microarray binding arts. In this example, the mean background signal intensity was estimated to be 400 and signals were determined to be significant when they exceeded background by a factor of 50.

[2] = test system: IgA from a celiac positive sample; assay: Antibody assay (B peptides) on peptide array, IgA binding
Protocol: A peptide array comprising peptide fragment sequences synthesized on the surface of the array was generated according to the methods described above. The peptide array was developed to test all 12 mer sequences from alpha-gliadin, including sequences where glutamine was substituted with glutamate, as described above (see, e.g., FIGS. 15 and 16). A reduction reaction was performed to remove the disulfide bonds that exist between cysteine residues. This reaction was not performed when epitopes involving cyclic peptides based on cysteine bonds are needed. Dithiothreitol was prepared in a concentration of 0.1 g per 20 mL PBS-Tween (PBST). The peptide microarray (herein referred to as the peptide chip) was immersed in the DTT solution and placed in a nitrogen atmosphere at a pressure of 40 Pa at room temperature for 1 hour. […]
The peptide array was then analyzed to detect antibody/peptide complexes. […]
A set of 12-mer sequences generating weakly or strongly positive binding signals to celiac positive samples was compiled (see, e.g., Table A in Appendix A of U.S. Provisional Application No. 61/761,347, incorporated herein by reference). Using a computer programmed to undertake sequence analysis, subsequences present within this set of 12-mer sequences were determined using a series of sliding windows having a minimum length of 3 amino acids and maximum length of 11 amino acids. […]

subsequence identified for antibody binding [1] | immune dominant subsequence (epitope) for antibody response amongst celiac positive subjects ([2]; alpha-gliadin 12-mer array incl. deamidated sequences, celiac positive samples) | sample binding hits ([2]; celiac-positive serum sample, IgA binding, FIG. 18, Row QPE, Column QPF) | Substance
key subsequence for antibody binding | – | – | PQQPEQII
– | key immune dominant subsequence | 91.78% | QPEQPF [QPE-QPF]
